Legend:
glycemia [1] = assay: Hyperglycemia-producing activity, tests in dogs (glycemia); type: in vivo, dog; conditions: p.o.
[2] = Acute toxicity (LD50 /24 hours); conditions: in vivo, po
glycemia [3] = assay: Hyperglycemia-producing activity, tests in rats (glycemia); type: in vivo, rat (adult white rats)
Procedure: The following test methods were used to determine the hyperglycemia-producing activity:
The experiments were conducted in adult white rats weighing 200 g+ 10 g.
The products were administered as a suspension in gummy julep, by stomach tube, at dosages of 10, 20 and 100 mg/kg, p.o.
At each dosage level, and in each case, lots of 10 test animals (5 male and 5 female) and of 10 reference animals (5 male and 5 female, administered only the gummy Julep) were used.
Blood samples were taken by cardiac puncture, at times 15, 60 minutes and 2, 4 and 24 hours after administration of the products, and the glycemia was determined.

[4] = tested on: cardiovascular parameters; assay: Cardiovascular parameters (blood pressures, cardiac rhythm) in anesthetized dogs; type: in vivo, dog; conditions: 100 mg/kg, p.o.

O=S1(=O)NC=Nc2cc(C(F)(F)F)c(F)cc21 [Example 1, 6-trifluoromethyl-7-fluoro-2H-1,2,4-benzothiadiazine-1,1-dioxide]
increase of the glycemia (glycemia [1]; 100 mg/kg): about 25% | action on the glycemia (glycemia [1]; 10 or 20 mg/kg): no significant action | LD50 at 24 h [2]: 3230 mg/kg | glycemia after administration (glycemia [3]; 100 mg/kg p.o., twenty-four hours after administration, from 0.839± 0.042 g/l): 1.212 ± 0.041 g/L | action on the glycemia (glycemia [3]; 10 or 20 mg/kg, p.o.): no significant action | action on the cardiac rhythm [4]: nor on the cardiac rhythm | action on the diastolic pressure [4]: no significant action | action on the differential pressure [4]: no significant action | action on the mean pressure [4]: no significant action | action on the systolic pressure [4]: no significant action

Source: US4025508A, “6-(Trifluoromethyl)-benzothiadiazines” (Serdex - Societe d'Etudes, de Recherches, de Diffusion et …, priority 1973, dated 1977)
